Reference: ChEMBL document CHEMBL4330139, “Synthetically modified methoxsalen for enhanced cytotoxicity in light and dark reactions” (Bioorg Med Chem Lett, 2019)

What was measured:
PAM212 = experiment: Phototoxicity against mouse PAM212 cells assessed as cell growth inhibition preincubated for 30 mins followed by 1.28 J/cm2 UV light exposure and measured after 5 days by coulter counting method; type: functional, cell-based; conditions: PAM212, light or radiation study
[1] = Dark toxicity against mouse PAM212 cells assessed as cell growth inhibition incubated for 30 mins under dark condition measured after 5 days by coulter counting method; type: cell-based
[2] = Dark toxicity against mouse PAM212 cells assessed as cell growth inhibition incubated for 5 days under dark condition by coulter counting method; type: cell-based

Row | Structure (SMILES) | IC50 (PAM212) | IC50 at 30 min [1] | IC50 at 5 days [2]
1 | COc1c2occc2c(NC(=O)c2ccc(N=[N+]=[N-])cc2)c2ccc(=O)oc12 | 33 µM | > 100 µM | > 300 µM
2 | CCN(C)/N=N/c1c2ccoc2c(OC)c2oc(=O)ccc12 | > 70 µM | > 100 µM | 10 µM
3 | COc1c2occc2cc2ccc(=O)oc12 [METHOXSALEN] | 0.1 µM | > 100 µM | > 100 µM
4 | COc1c2occc2c(NC(=O)NCCCl)c2ccc(=O)oc12 | > 100 µM | > 100 µM | > 300 µM
5 | CCN(CC)/N=N/c1c2ccoc2c(OC)c2oc(=O)ccc12 | > 100 µM | > 100 µM | 6 µM
6 | COc1c2occc2c(NC(=O)CCl)c2ccc(=O)oc12 | 40 µM | 50 µM | 4 µM
7 | COc1c2occc2c(/N=N/N(C)C)c2ccc(=O)oc12 | > 100 µM | > 100 µM | 20 µM
8 | CCCCN(C)/N=N/c1c2ccoc2c(OC)c2oc(=O)ccc12 | 4 µM | > 100 µM | 7 µM
